Reference: PubChem BioAssay AID1159564 (GlaxoSmithKline (GSK), 2015)
Active and inactive are the calls of the source. How the calls were made is not given here.

Tested on: L. donovani-infected THP-1 macrophages, intracellular amastigote imaging
Assay: intracellular L. donovani amastigote inhibition, imaging, THP-1 host macrophages, host toxicity (AID 1159564)
[1] = measured here: THP-1 host cell toxicity
[2] = measured here: amastigotes per macrophage

Row | Structure (SMILES) | IC50 | IC50 [1] [µM] | IC50 [2] [µM]
1 | Cc1nc2c(-c3ncn[nH]3)cc(NC(=O)Cc3ccccc3)cn2c1C | 0.4 µM | 7.9 | 0.32
2 | O=S(=O)(NCC(c1cccnc1)N1CCN(c2ccc(F)cc2)CC1)c1cccs1 (configuration not stated) | > 50 µM (inactive) | > 50 | > 50
3 | COc1ccc2ncc(F)c(NC(=O)C3(O)CCC(NCc4ccc5c(c4)OCCO5)CC3)c2n1 (configuration not stated) | 32 µM | 20 | 16
4 | CC1(Oc2cncc(Cl)c2)CCN(Cc2cc3ccccc3[nH]2)C1 (configuration not stated) | 20 µM | 32 | 32
5 | COc1ccc(OC)c(S(=O)(=O)N(Cc2c(F)cccc2F)[C@@H]2CCN(C#N)C2)c1 | 25 µM | 20 | 20
6 | CC1CN(Cc2ccc(C#N)cc2)CCN1c1ccc(NC(=O)c2ccccc2F)cc1 (configuration not stated) | 10 µM | > 50 | 5
7 | CCN(CC)c1ccc(S(=O)(=O)N(CC)CC)c2nonc12 | 0.4 µM | 16 | 0.13
8 | COc1ncc(-c2ccc3ncnc(N4CCOCC4)c3c2)cc1NS(C)(=O)=O | 5 µM | 1 | 0.63
9 | COc1ccc(C(=O)Nc2ccc(NC(=O)CO)cc2)cc1 | > 50 µM (inactive) | 20 | > 50
10 | O=C(CN(Cc1ccccn1)Cc1ccccn1)NCc1ccc(-c2csnn2)cc1 | 5 µM | > 79 | 5
11 | Cc1ccc(NC(=O)c2ccc([N+](=O)[O-])s2)cc1S(=O)(=O)N1CCOCC1 | 3.2 µM | 40 | 2
12 | CC(=O)Nc1ccc(-c2noc(CC3CCCN(Cc4cccc(F)c4C)C3)n2)cc1 (configuration not stated) | 32 µM | > 50 | 13
13 | CCCN(Cc1ccc(OC)c(OC)c1)Cc1cc(=O)c2c(C)cc(C)cc2[nH]1 | 25 µM | 5 | 20
14 | COc1ccc(-c2cc(C)no2)cc1S(=O)(=O)Nc1ccc(C)c(C)c1 | 2.5 µM | > 50 | 2
15 | Cc1ncsc1CNc1cnc(-c2ccc3c(c2)OCCO3)c(-c2cnn(C)c2)c1 | 16 µM | 16 | 13
16 | O=C(N1CCc2ccccc2CC1)C1(C(=O)N2CCC(n3c(=O)[nH]c4ncccc43)CC2)CC1 | > 50 µM (inactive) | > 50 | > 50
17 | Cc1ccc(C)c(CN2C(=O)NC3(CCc4ccccc43)C2=O)c1 (configuration not stated) | > 50 µM (inactive) | > 50 | 16
18 | O=c1ccc2ccc(F)c3c2n1C[C@H]3CN1CCC(NCc2cc3ccccc3o2)CC1 | 20 µM | 32 | 13
19 | O=C(Cc1ccccc1)Nc1[nH]nc2sc(C(=O)NC3CCCC3)cc12 | 3.2 µM | 1.6 | 1.6
20 | COc1ccc(-c2ccc3nnc(-c4ccc(O)c(OC)c4)n3c2)cn1 | > 50 µM (inactive) | > 50 | > 50
21 | CNC(=O)C1Cc2ccccc2N1C(=O)Cc1ccc(F)cc1 (configuration not stated) | > 50 µM (inactive) | > 50 | > 50
22 | O=C(Nc1cccc(F)c1)N1CCC(Oc2cccc(-c3cccnc3)c2)CC1 | > 50 µM (inactive) | 20 | 0.79
23 | COc1cc(Cl)c(C)cc1NC(=O)c1ccc([N+](=O)[O-])s1 | 6.3 µM | > 50 | 5

Row | Structure (SMILES) | IC50 | IC50 [1] [µM] | IC50 [2] [µM]
24 | COc1ccc(S(=O)(=O)Nc2ccc(C(=O)Nc3nc(-c4ccccn4)cs3)cc2)cc1 | 0.4 µM | 10 | 0.16
25 | N#Cc1cccc(CNc2ccc(-c3cnn(CC4CC4)c(=O)c3C#N)cc2)c1 | 1.3 µM | 6.3 | 0.25
26 | CCS(=O)(=O)Nc1ccc(C2=NN(C(=O)c3cccs3)C(c3ccccc3OC)C2)cc1 (configuration not stated) | 7.9 µM | > 50 | 7.9
27 | COc1cnc2ccc(=O)n(CCN3CCC(NC/C=C/c4cc(F)ccc4F)CC3)c2c1 | 5 µM | 40 | 2
28 | COc1ccc(Nc2nc(-c3ccccn3)cs2)c(OC)c1 | 2.5 µM | > 50 | 2
29 | CCc1cccc(-n2nc(OCC(=O)NC3CCCC3)c3cccnc32)c1 | 1 µM | < 50 | 1.3
30 | Cc1ccccc1NS(=O)(=O)c1ccc2[nH]cc(C(=O)NC3CCCC(C)C3C)c(=O)c2c1 (configuration not stated) | 16 µM | 13 | 16
31 | CCOc1ccc(OCC(=O)N2c3ccccc3CC2C(=O)NC)cc1 (configuration not stated) | > 50 µM (inactive) | > 50 | > 50
32 | CN(C)S(=O)(=O)c1ccc(Cl)c(C(=O)Nc2nc(-c3ccccn3)cs2)c1 | 10 µM | 6.3 | 5
33 | CCOc1cnn(C)c(=O)c1Nc1ccc(C(=O)NCc2ccc(F)cc2)cc1 | > 50 µM (inactive) | 32 | > 50
34 | Cc1cc(NC(=O)c2ccc([N+](=O)[O-])s2)ccc1Br | 2.5 µM | 16 | 1.6
35 | CC(=O)Nc1ccc(CN2CCC(N3CC(c4ccccc4)(c4ccccc4)OCC3=O)CC2)cc1 | 25 µM | 40 | 20
36 | COc1ccc2ncc(=O)n(CCN3CCOC(CNCc4ccc(C(F)(F)F)cc4F)C3)c2n1 (configuration not stated) | > 50 µM (inactive) | > 50 | > 50
37 | O=C1CN(C(=O)c2cccc(Nc3ncc(-c4ccc5c(c4)OCO5)cn3)c2)CCN1 | 5 µM | 63 | 2
38 | Cc1cc(C)n(-c2nc(NC(C)C)nc(NC(C)(C)C)n2)n1 | 5 µM | 6.3 | 4
39 | NC(=O)c1cc(NC(=O)c2ccccc2COc2ccccc2)ccc1Cl | 3.2 µM | 16 | 1.6
40 | COc1ccccc1CNc1cc(C2CC2)nc(-c2nccn2C)n1 | 0.5 µM | 16 | 0.4
41 | COc1cc(Nc2nccc(Nc3onc(C)c3C)n2)cc(S(=O)(=O)C2CCOCC2)c1 | > 50 µM (inactive) | 40 | 5
42 | CN(C)c1ccc(-c2cc3nccnc3c(OC[C@H]3CCCNC3)n2)cn1 | 20 µM | 20 | 25
43 | c1ccc2[nH]c(-c3ccc(N4CCCC4)nc3)nc2c1 | > 50 µM (inactive) | 32 | > 50
44 | O=C(CC1(O)C(=O)N(Cc2cccs2)c2ccc(Br)cc21)c1cccnc1 (configuration not stated) | > 50 µM (inactive) | 20 | > 50
45 | NS(=O)(=O)c1ccc(Nc2ncc3cccc(OC4CCNCC4)c3n2)cc1 | 20 µM | 1 | 16
46 | Cc1cc(Nc2cc(C3CC3)[nH]n2)nc(N2CCC[C@H]2C(N)=O)n1 | 0.2 µM | 0.13 | 0.079

Row | Structure (SMILES) | IC50 | IC50 [1] [µM] | IC50 [2] [µM]
47 | Cc1cc2cc(CNc3ccc4c(c3)OCO4)c(=O)n(CCO)c2cc1C | 0.5 µM | 40 | 0.25
48 | O=c1cc(NCCCNCc2c[nH]c3ccc(Br)cc23)[nH]c2ccccc12 | > 50 µM (inactive) | > 50 | > 50
49 | Cc1cccnc1NC(=O)c1cccc(OCc2c(C)noc2C)c1 | 20 µM | 6.3 | 10
50 | O=C(c1ccc(OCCCc2cnc[nH]2)cc1)C1CC1 | > 50 µM (inactive) | > 50 | 7.9
51 | O=C(COc1ccccc1)Nc1ccccc1C(=O)Nc1nccs1 | > 50 µM (inactive) | 7.9 | > 50
52 | CC1CCCN(S(=O)(=O)c2ccc(C(=O)Nc3nc(-c4ccccn4)cs3)cc2)C1 (configuration not stated) | 0.25 µM | 5 | 0.16
53 | Cc1nc(-c2ccc3c(c2)OCO3)sc1C(=O)NCc1ccc2c(c1)OCO2 | 0.25 µM | > 50 | 0.79
54 | O=C(c1cccc(Cl)c1Cl)N1CCn2c1nc(-c1ccncc1)cc2=O | > 50 µM (inactive) | > 50 | 32
55 | COc1cccc2sc(CN(C)C(=O)C3CNCCN3c3ccc(F)cc3)c(C)c12 (configuration not stated) | 6.3 µM | 13 | 4
56 | CNC(=O)C1Cc2ccccc2N1C(=O)COc1cccc(OC)c1 (configuration not stated) | > 50 µM (inactive) | > 50 | > 50
57 | Fc1ccc(Nc2nc(-c3ccccn3)cs2)cc1 | 10 µM | > 50 | 6.3
58 | O=C1CN(Cc2ccco2)C2CS(=O)(=O)CC2N1c1ccc(Cl)cc1 (configuration not stated) | > 50 µM (inactive) | > 50 | > 50
59 | CN1CCCN(C(=O)c2ccc(N3CCCC3)cc2Cl)CC1 | > 50 µM (inactive) | > 50 | > 50
60 | Cc1cc(=O)n2nc(Oc3ccc(C#N)cc3Cl)sc2n1 | 32 µM | 32 | 32
61 | COc1cnc2ccc(=O)n(CCN3CCC(NC(=O)c4ccc(Cl)cc4)CC3)c2c1 | > 50 µM (inactive) | > 50 | 4
62 | CN(Cc1nc2ccc(C(=O)NCC3CCCCC3)cc2[nH]1)C1CCCc2cccnc21 (configuration not stated) | 0.5 µM | 6.3 | 0.4
63 | COc1ccc(-c2cnc(NC(=O)c3ccc(F)cc3)n2C)cc1 | 1.3 µM | > 50 | 0.5
64 | COc1ccc2nccc([C@H](O)CN3CC[C@H](NC(=O)c4ccc(Br)cc4)[C@@H](O)C3)c2n1 | > 50 µM (inactive) | > 50 | > 50
65 | Nc1cc(-c2ccc3ncnc(N4CCOCC4)c3c2)cnc1N | 10 µM | > 50 | 1.3
66 | CCOc1ccc(NC(=O)C=Cc2ccc(CC)o2)cc1 | 50 µM | 20 | 25
67 | COc1ccc(OC)c2c(=O)c(Cc3ccccc3)c(C)[nH]c12 | 4 µM | > 50 | 2.5
68 | COc1ccc(C2CC(c3ccccc3Cl)=NN2C(=O)CNC(=O)C2CCC2)cc1 (configuration not stated) | > 50 µM (inactive) | > 50 | > 50
69 | O=C(Cn1cnc([N+](=O)[O-])n1)Nc1ccc(Cl)cc1C(=O)c1ccccc1 | > 50 µM (inactive) | > 50 | > 50
